Source: patent EP0101412A2, “Anthelmintics” (CIBA-GEIGY AG, priority 1982, dated 1984)
Where “and” joins values, the source holds several entries; their conditions need not be identical. Equal entries are not always repeated.

Test system: Fasciola hepatica
Assay: Trial in sheep artificially infected with Fasciola hepatica (faecal egg counts and adult helminth counts at necropsy)
Assay type: in vivo, Schafe
Conditions: for adulte Helminthen Mittelwert: group mean of 4 sheep; for EPG 12. Woche / EPG 13. Woche / adulte Helminthen Anzahl: sheep, individual animals; for EPG 12. Woche: 12th week after infection; for EPG 13. Woche: 13th week after infection; for adulte Helminthen Anzahl: at necropsy; for adulte Helminthen Reduktion in %: versus untreated control animals
Experimental: Versuch an mit Fasciola hepatica und Nematoden […] von Fasciola hepatica infiziert. Zu diesem Zweck […] in einer wässrigen 0,4%igen Suspension von Carboxymethylcellulose direkt in den Rumen […] oral mit je 10.000 bzw. 5.000 […] 3) von […] Trichostrongylus colubriformis und Haemonchus contortus infiziert. Für die Medikierung wurden die Versuchstiere in gleichgrossen Gruppen und in […], in denen der Anteil von Wirkstoff der Formel 1 2-5 mg/kg und der Anteil Wirkstoff der Formel II 3-7 mg/kg betrugen, an die […] in Gehegeboxen unter Normalbedingungen gehalten. Zur […] in bestimmten Zeitinvervallen nach Infizierung und Medikierung die mit dem Kot […] und die […]. Die erhaltenen Resultate […] und der Kontrollgruppen wurden für die Auswertung verglichen. Indikation: Fasciola hepatica […]): 19

Compound | adulte Helminthen Mittelwert (II 6,75 mg/kg) | EPG 12. Woche (II 6,75 mg/kg) | EPG 13. Woche (II 6,75 mg/kg) | adulte Helminthen Anzahl (II 6,75 mg/kg) | adulte Helminthen Reduktion in % (II 6,75 mg/kg) | adulte Helminthen Mittelwert (I 2,5 mg/kg) | EPG 12. Woche (I 2,5 mg/kg) | EPG 13. Woche (I 2,5 mg/kg) | adulte Helminthen Anzahl (I 2,5 mg/kg) | adulte Helminthen Reduktion in % (I 2,5 mg/kg)
c1ccc([C@H]2CN3CCSC3=N2)cc1 [Substanz II, L-(-)-2,3,5,6-Tetrahydro-6-phenylimidazo[2,1-b]-thiazol] | 92,8 | 225 Eier pro gr Faeces and 990 Eier pro gr Faeces and 160 Eier pro gr Faeces and 226 Eier pro gr Faeces | 810 Eier pro gr Faeces and 1140 Eier pro gr Faeces and 250 Eier pro gr Faeces (2×) | 103 and 108 and 71 and 89 | 9,6% |  |  |  |  | 
CSc1nc2cc(Cl)c(Oc3cccc(Cl)c3Cl)cc2[nH]1 [Substanz I, 5-Chlor-6-(2',3'-dichlorphenoxy)-2-methylthiobenzimidazol] |  |  |  |  |  | 48,5 | 210 Eier pro gr Faeces and 160 Eier pro gr Faeces and 120 Eier pro gr Faeces and 20 Eier pro gr Faeces | 130 Eier pro gr Faeces and 160 Eier pro gr Faeces and 180 Eier pro gr Faeces and 15 Eier pro gr Faeces | 58 and 65 and 51 and 20 | 52,7%
